According to patent US4540691A, “Dopamine agonists and use thereof” (Nelson Research & Development Co., priority 1984, dated 1985):
pIC50: −log10 of the molar value. Entries after “also recorded” stand apart in the source; their conditions may differ.

Experiments:
DA receptor = experiment: Radioligand binding assay: displacement of ^3 H-5,6-dihydroxy-N,N-dipropyl-2-aminotetralin (DA receptor agonist) from homogenates of rat corpus striatum; conditions: for pIC50: mean of 3 independent experiments each in triplicate, 10^-11 to 10^-5 M, read-out: IC50 (concentration of drug required to inhibit the specific binding by 50%)
Procedure: The ability of the above compounds to displace the specific binding of ^3 H-5,6-dihydroxy-N,N-dipropyl-2-aminotetralin, a potent DA receptor agonist (Feenstra et al., Life Sci., 32, 1313 (1983)) to homogenates of rat corpus striatum was studied.
The assay was performed essentially according to the method of Leysen and Gommeran J. Neurochem. 36, 201 (1981) for ^3 H-apomorphine binding.
The IC50 is the concentration of drug required to inhibit the specific binding by 50%. The results are presented as the mean values of 3 independent experiments each analyzed in triplicate over the concentration range 10^-11 to 10^-5 M.

dopamine receptor = experiment: Dopamine receptor agonist activity, overall conclusion from various tests; conditions: pre- and post-synaptic dopaminergic tests
Procedure: The dopaminergic activity of three analogues (A,B,C) was evaluated in comparison with the indolic structural analogue RU 29717 (Nedelec et al., 1983, J. Med. Chem., 26, 522) in three test systems. Compounds B and C are within the scope of the present invention.

[1] = test system: presynaptic dopamine receptors; experiment: Presynaptic DA activity in the GBL model: counteracting GBL-induced rise in striatal DOPA levels; assay type: in vivo, rat; conditions: for % Reversal vs. GBL group / DOPA (striatal level): 0.2 μmol/kg; for % Reversal vs. GBL group: GBL + NSD 1015 group = 0, NSD 1015 group = 100; for DOPA (striatal level): GBL model, NSD 1015 as decarboxylase inhibitor
Procedure: The ability of a dopamine agonist to counteract the gamma-butyrolactone (GBL) induced rise in DOPA levels in the rat striatum is an indication of its activity at presynaptic dopamine receptors. (Walters and Roth, 1976 Arch. Pharmacol., 296, 5).
The experiments were performed in rats according to the method of Walters and Roth (ibid). The striatal levels of DOPA were determined using the method of Westerink and Mulder (1981 J. Neurochem. 36, 1449). NSD 1015 was used as decarboxylase inhibitor.

[2] = test system: homovanillic acid, HVA (corpus striatum); experiment: Effect on dopamine metabolism: lowering of striatal HVA levels; assay type: in vivo, Female Wistar rats; conditions: for HVA % control / HVA content of corpus striatum: injected, 60 min, mean ± S.E.M.
Procedure: Dopamine agonists are known to produce a lowering of the striatal levels of one of the main metabolites of dopamine, homovanillic acid, HVA, (Feenstra et al., 1983 Arch. Pharmacol., 324, 108).
Female Wistar rats (160-180g) were injected with the drugs under test dissolved in saline and were then decapitated 60 min later. The HVA content of the corpus striatum was determined according to the method of Westerink and Mulder (J. Neurochem., 1981 36, 1449).

[3] = test system: adrenergic and serotonergic; conditions: literature background; cited from earlier work
[4] = literature background; cited from earlier work
dopaminergic = conditions: literature background; cited from earlier work

SMILES	pIC50 (DA receptor)	dopamine agonist activity (general conclusion in words) (dopamine receptor)	potency in binding assay (conclusion in words) (DA receptor)	% Reversal vs. GBL group [1]	DOPA (striatal level) [1]	HVA % control ([2]; 0.4 μmol/kg)	HVA content of corpus striatum ([2]; 0.4 μmol/kg)	potency in GBL model (conclusion in words) ([1]; conclusion)	HVA % control ([2]; 0.2 μmol/kg)	HVA content of corpus striatum ([2]; 0.2 μmol/kg)	activity on HVA levels (conclusion in words) ([2]; conclusion)	adrenergic and serotonergic activity (in words) [3]	emetic activity (in words) [4]	dopaminergic agonist activity (in words) (dopaminergic)
CN1CCc2cccc3c2[C@H]1Cc1ccc(O)c(O)c1-3 [Apomorphine, reference compound]	8.49	–	–	–	–	–	–	–	–	–	–	–	–	–
CCCN1CCOC2c3ccccc3CCC21 (centres unmarked) [Compound A]	6.96	significantly less active	the least potent	4.5%	5.25 ± 0.09 µg/g	91.8 ± 2.0 % control	0.90 ± 0.02 µg/g	–	–	–	–	–	–	–
CCCN1CCOC2c3cccc(O)c3CCC21 (centres unmarked) [Compound B]	7.10	useful levels of dopamine agonist activity	some activity	17.3%	4.80 ± 0.37 µg/g	98.0 ± 12.2 % control	0.96 ± 0.12 µg/g	–	–	–	–	–	–	–
CCCN1CCOC2c3cc(O)ccc3CCC21 (centres unmarked) [Compound C]	8.55	useful levels of dopamine agonist activity; also recorded: as active as the known DA agonist RU 29717	–	94.6%	2.08 ± 0.12 µg/g	48.0 ± 1.0 % control	0.47 ± 0.01 µg/g	slightly more potent than RU 29717	63.3 ± 4.1 % control	0.62 ± 0.04 µg/g	comparable in activity to RU 29717	–	–	–
CCCN1CCO[C@@H]2c3cccc4[nH]cc(c34)C[C@H]21 [RU 29717, N-PROPYL-9-OXAERGOLINE, reference compound]	8.52	–	–	88.4%	2.30 ± 0.16 µg/g	46.9 ± 2.0 % control	0.46 ± 0.02 µg/g	–	51.0 ± 4.1 % control	0.50 ± 0.04 µg/g	–	has adrenergic and serotonergic activity	Its activity as an emetic is a significant problem	extremely potent direct acting dopaminergic agonist, comparing favorably with pergolide
